Experiment [1] has as its target T1, NPC1-like intracellular cholesterol transporter 1 (Homo sapiens, UniProt Q9UHC9).
T1 sequence (Q9UHC9 whole entry): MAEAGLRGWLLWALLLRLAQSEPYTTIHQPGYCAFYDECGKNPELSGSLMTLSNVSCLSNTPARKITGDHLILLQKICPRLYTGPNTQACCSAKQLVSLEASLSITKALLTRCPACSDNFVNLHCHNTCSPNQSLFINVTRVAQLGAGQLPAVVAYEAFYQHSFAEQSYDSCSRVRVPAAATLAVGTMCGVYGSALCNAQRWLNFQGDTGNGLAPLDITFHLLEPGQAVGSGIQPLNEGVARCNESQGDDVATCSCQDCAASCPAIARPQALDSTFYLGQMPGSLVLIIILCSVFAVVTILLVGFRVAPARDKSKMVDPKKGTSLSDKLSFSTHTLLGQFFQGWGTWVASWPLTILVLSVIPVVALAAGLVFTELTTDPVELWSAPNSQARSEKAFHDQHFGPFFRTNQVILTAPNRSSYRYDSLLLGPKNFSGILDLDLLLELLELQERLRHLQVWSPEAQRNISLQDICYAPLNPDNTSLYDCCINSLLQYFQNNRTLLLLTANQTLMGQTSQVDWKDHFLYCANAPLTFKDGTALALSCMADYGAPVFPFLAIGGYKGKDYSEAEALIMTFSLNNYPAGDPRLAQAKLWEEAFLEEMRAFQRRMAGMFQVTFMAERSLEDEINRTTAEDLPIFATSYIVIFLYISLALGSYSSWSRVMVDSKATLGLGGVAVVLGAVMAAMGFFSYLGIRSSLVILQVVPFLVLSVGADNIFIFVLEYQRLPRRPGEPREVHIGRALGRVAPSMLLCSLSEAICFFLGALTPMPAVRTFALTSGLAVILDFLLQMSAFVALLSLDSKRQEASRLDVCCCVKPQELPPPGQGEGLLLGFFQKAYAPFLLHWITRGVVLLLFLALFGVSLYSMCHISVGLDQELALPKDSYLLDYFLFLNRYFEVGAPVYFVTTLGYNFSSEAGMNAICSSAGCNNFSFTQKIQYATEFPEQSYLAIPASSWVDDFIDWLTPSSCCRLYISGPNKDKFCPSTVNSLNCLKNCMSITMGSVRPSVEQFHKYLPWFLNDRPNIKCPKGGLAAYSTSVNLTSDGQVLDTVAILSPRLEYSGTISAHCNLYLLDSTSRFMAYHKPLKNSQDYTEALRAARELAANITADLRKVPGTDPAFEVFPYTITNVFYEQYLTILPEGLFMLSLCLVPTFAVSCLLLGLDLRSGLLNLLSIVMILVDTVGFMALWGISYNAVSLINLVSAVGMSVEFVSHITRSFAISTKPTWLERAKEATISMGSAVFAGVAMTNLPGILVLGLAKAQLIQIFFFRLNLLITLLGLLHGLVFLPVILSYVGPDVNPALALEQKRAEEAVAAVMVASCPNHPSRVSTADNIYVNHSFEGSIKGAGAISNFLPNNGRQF
Kind of experiment: Displacement of [35S](2S,3S,4S,5R,6S)-6-(4-((2S,3R)-3-((S)-3-(4-fluorophenyl)-3-hydroxypropyl)-1-(4-(3-(methylsulfonamido)prop-1-ynyl)phenyl)-4-oxoazetidin-2-yl)phenoxy)-3,4,5-trihydroxytetrahydro-2H-pyran-2-carboxylic acid from human recombinant NPC1L1 expressed in HEK293 cells. The format is cell-based. On the technique in general: Displacement assays read how much labelled ligand stays bound in the presence of the test substance.

Experiment [2] addresses T1, NPC1-like intracellular cholesterol transporter 1. Kind of experiment: Displacement of [35S](2S,3S,4S,5R,6S)-6-(4-((2S,3R)-3-((S)-3-(4-fluorophenyl)-3-hydroxypropyl)-1-(4-(3-(methylsulfonamido)prop-1-ynyl)phenyl)-4-oxoazetidin-2-yl)phenoxy)-3,4,5-trihydroxytetrahydro-2H-pyran-2-carboxylic acid from NPC1L1 in human enterocyte brush border membrane.
The target of experiment [3] is NPC1-like intracellular cholesterol transporter 1 (Rattus norvegicus, UniProt Q6T3U3). Kind of experiment: Displacement of [35S](2S,3S,4S,5R,6S)-6-(4-((2S,3R)-3-((S)-3-(4-fluorophenyl)-3-hydroxypropyl)-1-(4-(3-(methylsulfonamido)prop-1-ynyl)phenyl)-4-oxoazetidin-2-yl)phenoxy)-3,4,5-trihydroxytetrahydro-2H-pyran-2-carboxylic acid from NPC1L1 in rat enterocyte brush border membrane.
NPC1-like intracellular cholesterol transporter 1 (Rattus norvegicus, UniProt Q6T3U3), sequence (Q6T3U3 21-1331 limits assumed): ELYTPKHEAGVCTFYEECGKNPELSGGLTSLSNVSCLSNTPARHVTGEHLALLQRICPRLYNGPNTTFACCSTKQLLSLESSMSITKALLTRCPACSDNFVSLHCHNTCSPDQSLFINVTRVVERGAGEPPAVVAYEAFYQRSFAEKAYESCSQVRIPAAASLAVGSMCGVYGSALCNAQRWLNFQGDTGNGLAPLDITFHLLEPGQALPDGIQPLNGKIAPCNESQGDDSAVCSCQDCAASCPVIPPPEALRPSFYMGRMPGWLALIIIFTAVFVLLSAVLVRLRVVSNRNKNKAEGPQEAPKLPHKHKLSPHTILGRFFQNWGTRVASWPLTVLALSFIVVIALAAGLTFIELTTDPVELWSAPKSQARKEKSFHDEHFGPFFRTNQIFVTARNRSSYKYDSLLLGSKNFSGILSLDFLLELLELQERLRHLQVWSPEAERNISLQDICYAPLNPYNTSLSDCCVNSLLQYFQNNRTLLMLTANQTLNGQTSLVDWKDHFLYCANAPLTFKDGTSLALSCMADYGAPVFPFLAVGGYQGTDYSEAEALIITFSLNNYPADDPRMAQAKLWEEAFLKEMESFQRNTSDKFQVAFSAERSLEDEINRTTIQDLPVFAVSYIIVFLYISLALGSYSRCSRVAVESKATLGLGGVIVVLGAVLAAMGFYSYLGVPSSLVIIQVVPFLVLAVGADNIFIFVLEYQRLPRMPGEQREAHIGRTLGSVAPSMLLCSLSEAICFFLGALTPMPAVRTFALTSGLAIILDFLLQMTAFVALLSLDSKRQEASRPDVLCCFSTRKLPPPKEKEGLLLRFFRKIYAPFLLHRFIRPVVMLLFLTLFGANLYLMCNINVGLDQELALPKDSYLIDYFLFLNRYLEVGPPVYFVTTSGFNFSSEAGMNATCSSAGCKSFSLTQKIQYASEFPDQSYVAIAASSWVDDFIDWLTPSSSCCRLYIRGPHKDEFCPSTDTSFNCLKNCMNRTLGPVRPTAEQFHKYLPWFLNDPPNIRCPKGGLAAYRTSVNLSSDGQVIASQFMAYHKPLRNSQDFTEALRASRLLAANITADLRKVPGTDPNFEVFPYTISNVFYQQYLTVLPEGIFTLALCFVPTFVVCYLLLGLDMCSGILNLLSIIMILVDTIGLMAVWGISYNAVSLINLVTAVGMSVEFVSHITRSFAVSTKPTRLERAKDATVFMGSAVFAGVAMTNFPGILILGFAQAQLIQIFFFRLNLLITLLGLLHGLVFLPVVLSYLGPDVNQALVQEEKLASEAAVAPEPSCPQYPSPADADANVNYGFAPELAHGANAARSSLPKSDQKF

A short description of experiment [4]: Displacement of [35S](2S,3S,4S,5R,6S)-6-(4-((2S,3R)-3-((S)-3-(4-fluorophenyl)-3-hydroxypropyl)-1-(4-(3-(methylsulfonamido)prop-1-ynyl)phenyl)-4-oxoazetidin-2-yl)phenoxy)-3,4,5-trihydroxytetrahydro-2H-pyran-2-carboxylic acid from NPC1L1 in pig enterocyte brush border membrane. Details: species or system Sus scrofa.

We go through four compounds from ChEMBL document CHEMBL1136903, “Spiroimidazolidinone NPC1L1 inhibitors. 1: Discovery by 3D-similarity-based virtual screening” (Bioorg Med Chem Lett, 2009).

What is called IC50 is the concentration at which inhibition is half-maximal.

For `O=C(O)[C@H]1O[C@@H](Oc2ccc([C@@H]3[C@@H](CC[C@H](O)c4ccc(F)cc4)C(=O)N3c3ccc(F)cc3)cc2)[C@H](O)[C@@H](O)[C@@H]1O`, the IC50 stood at 300 nM in experiment [1], 300 nM in experiment [2], 580 nM in experiment [3] and 320 nM in experiment [4].

Turning to `CS(=O)(=O)NCC#CN1C(=O)[C@H](CC[C@H](O)c2ccc(F)cc2)[C@H]1c1ccc(O[C@@H]2O[C@H](C(=O)O)[C@@H](O)[C@H](O)[C@H]2O)cc1`, the IC50 in experiment [1] is 7 nM; in experiment [2], 20 nM; in experiment [3], 16 nM; in experiment [4], 13 nM.

For `O=C([C@@H]1C[C@@H](c2ccccc2)CN1C(=O)c1ccccc1)N1CCC2(C=Cc3ccccc32)CC1`, the IC50 in experiment [1] was 660 nM; in experiment [2] it was 5300 nM; in experiment [3], 34000 nM; in experiment [4], greater than 500000 nM.

`CC(C)(C)c1ccc(C(=O)N2CCC3(CC2)C(=O)N(CC(=O)N2CCCCC2)CN3c2ccccc2)cc1`: the IC50 in experiment [1] was 2500 nM; in experiment [2] it was 10000 nM; in experiment [3] it was 110000 nM; in experiment [4] it was greater than 500000 nM.
